How the values were obtained:
Format in all cases: cell-based
ColA1 gene = test: qRT-PCR, expression of collagen gene in UVB-irradiated human dermal fibroblasts; conditions: 24 hours, UVB-only control 30%
Protocol: (§1) First, human dermal fibroblasts cultured in the same manner as in Example 6 were dispensed in a 96-well plate in an amount of 4×10^3 cells/well, and UVB was irradiated to the medium at 10 mJ/cm^2. […] Thereafter, the changes in expression levels of the ColA1 gene and the MMP1 gene were measured through quantitative real time-PCR (qRT-PCR). During this process, SYBR green I (Invitrogen), which is a fluorescent material, was used to examine the amount of the DNA product amplified by PCR in real time. Specifically, 0.2 μM of the primers prepared with the sequences shown in Table 3 below were added to a PCR tube, and mixed with 50 mM KCl, 20 mM Tris/HCl (pH 8.4), 0.8 mM dNTP, 0.5 U DNA polymerase (Extaq DNA polymerase), 3 mM MgCl2 and 1×SYBR Green I so as to prepare a reaction solution. Then, PCR was performed using a PCR device (Linegene K, BioER, China)(PCR conditions: primary denaturation for 3 minutes, denaturation at 94° C. for 30 seconds, annealing at 58° C. for 30 seconds, and polymerization at 72° C. for 30 seconds, a total of 40 cycles), and the fluorescence intensity was measured for each cycle.

[1] = test system: human dermal fibroblasts irradiated with UVB; test: WST-1 assay, cell viability recovery in UVB-irradiated human dermal fibroblasts; conditions: loliolide 2 μg/mL for 6 hours, then UVB 10 mJ/cm^2, 24 hours
Protocol: Human dermal fibroblasts cultured in the same manner as in Example 6 were dispensed in a 96-well plate by 4×10^3 cells/well, and loliolide was treated at concentrations of 2 μg/mL, 5 μg/mL, 10 μg/mL, and 20 μg/mL for 6 hours. Then, the medium was irradiated with UVB at 10 mJ/cm^2 and cultured further for 24 hours, and cell viability was measured by performing a WST-1 assay in the same manner as in Example 6.

MMP1 gene = test: qRT-PCR, expression of collagenase gene in UVB-irradiated human dermal fibroblasts; conditions: 24 hours, UVB-only control 2.4-fold increase
Protocol: as §1

[2] = test system: human dermal fibroblasts (HDFs); test: WST-1 assay, cytotoxicity of loliolide on human dermal fibroblasts; conditions: loliolide up to 20 μg/mL, 24 hours
Protocol: The purification of loliolide was performed in the same manner as in Example 3, and an extract was obtained using ethyl acetate from a lyophilized culture of the Scenedesmus sp. HS4 microalgae of the present invention, and loliolide was purified through fractionation/concentration. In the case of culturing human dermal cells, human dermal fibroblasts purchased from Lonza (Basel, Switzerland) were cultured in a 5% CO2 cell incubator at 37° C. using a medium in which 10% fetal bovine serum (FBS, 51480, Biowest, France) was further added to Dulbecco's modified Eagle's medium (DMEM medium, L0103-500, Biowest, France).
First, whether loliolide has cytotoxicity against human dermal fibroblasts was confirmed through WST-1 assay. After dispensing the cultured human dermal fibroblasts into a 96-well plate at 4×10^3 cells/well and culturing for 24 hours, the loliolide purified from Scenedesmus sp. HS4 microalgae was treated at concentrations of 0 μg/mL, 2 μg/mL, 5 μg/mL, 10 μg/mL, and 20 μg/mL, respectively. After 24 hours have elapsed after the loliolide treatment, the solution was treated in the medium using a WST-1 assay kit (EZ-cytox cell viability kit, Itshio, Korea), the absorbance was measured at a wavelength of 450 nm with a microplate reader (iMark microplate reader, Bio-Rad, USA).

[3] = UVB 10 mJ/cm^2, then loliolide 5 μg/mL
[4] = UVB 10 mJ/cm^2, then loliolide 10 μg/mL

CC1(C)C[C@H](O)C[C@@]2(C)OC(=O)C=C12 [loliolide]
expression level of ColA1 gene, based on cells without any treatment (ColA1 gene; [3]): 55% | expression level of ColA1 gene, based on cells without any treatment (ColA1 gene; [4]): 65% | cell viability compared to the UVB control group [1]: significantly increased | expression level of MMP1 gene (MMP1 gene; [3]): 25% | expression level of MMP1 gene (MMP1 gene; [4]): 46% | toxicity to human dermal fibroblasts (relative viability vs untreated control) [2]: not toxic

Reference: patent US12329850B2, “Microalgae having high loliolide productivity” (KOREA RESEARCH INSTITUTE OF BIOSCIENCE AND BIOTECHNOLOGY, priority 2019, dated 2025)
